In ChEMBL document CHEMBL1201862, “PubChem BioAssay data set” (2004):
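Values below derive from 48-hour exposures of cells grown in 96-well plates, with endpoints linearly interpolated between the two concentrations bracketing the appropriate inhibition level. At the GI50, growth is halved.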 Calls of active or inactive are those of the source. No stated cut-off is given here; in the data, active = GI50 up to about 1.1 µM and inactive = higher.

Columns and labels:
Assay in all cases: inhibition of tumour cell growth, NCI panel, 48 h
UO-31 = test system: UO-31
M14 = test system: M14
RXF 393 = test system: RXF 393
SW-620 = test system: SW-620
Hs-578T = test system: Hs-578T
HOP-92 = test system: HOP-92
SR = test system: SR
SK-OV-3 = test system: SK-OV-3
NCI-H23 = test system: NCI-H23
HCT-116 = test system: HCT-116
OVCAR-8 = test system: OVCAR-8
TK-10 = test system: TK-10
SF-539 = test system: SF-539
EKVX = test system: EKVX
MOLT-4 = test system: MOLT-4
UACC-257 = test system: UACC-257
T47D = test system: T47D

Measured: GI50

CC(C)(C)N/C(N)=N/C#N
inactive: UO-31 > 100 µM | M14 > 100 µM | RXF 393 > 100 µM | SW-620 > 100 µM | Hs-578T > 100 µM | HOP-92 > 100 µM | SR > 100 µM | SK-OV-3 > 100 µM | NCI-H23 > 100 µM | HCT-116 > 100 µM | OVCAR-8 > 100 µM | TK-10 > 100 µM | SF-539 > 100 µM | EKVX > 100 µM | MOLT-4 > 100 µM | UACC-257 > 100 µM

O=C1CCC(=O)N1CNc1ccc2c(c1)S(=O)(=O)c1ccccc1O2
inactive: UO-31 > 100 µM | M14 > 100 µM | RXF 393 > 100 µM | SW-620 > 100 µM | Hs-578T > 100 µM | HOP-92 > 100 µM | NCI-H23 > 100 µM | HCT-116 > 100 µM | T47D > 100 µM | OVCAR-8 > 100 µM | TK-10 > 100 µM | SF-539 > 100 µM | EKVX 46 µM | MOLT-4 > 100 µM | UACC-257 > 100 µM

Cc1ccc(S(=O)(=O)CN2C(=O)C(c3ccccc3)(c3ccccc3)C23OC(c2ccc(Cl)cc2)=CC3=O)cc1 (stereo not drawn)
inactive: UO-31 > 10 µM | M14 > 10 µM | RXF 393 > 10 µM | SW-620 > 10 µM | Hs-578T > 10 µM | HOP-92 > 10 µM | SK-OV-3 > 10 µM | NCI-H23 > 10 µM | HCT-116 > 10 µM | T47D > 10 µM | OVCAR-8 > 10 µM | TK-10 > 10 µM | SF-539 > 10 µM | EKVX > 10 µM | MOLT-4 > 10 µM | UACC-257 > 10 µM

O=C1C(=Cc2ccccc2O)N=C(c2ccccc2)N1n1c(-c2ccccc2)nc2ccccc2c1=O
inactive: UO-31 27.5 µM | M14 19.3 µM | SW-620 45.8 µM | Hs-578T 35.6 µM | SR 32.9 µM | SK-OV-3 48.3 µM | NCI-H23 35.4 µM | HCT-116 32.3 µM | T47D 26.2 µM | OVCAR-8 31.3 µM | TK-10 50.2 µM | SF-539 21.8 µM | EKVX 30.6 µM | MOLT-4 26.7 µM | UACC-257 29.9 µM

CC1=C(C)C(=O)C2=C(OCCO2)C1=O
inactive: UO-31 10.1 µM | M14 19.3 µM | SW-620 20.6 µM | HOP-92 2.75 µM | SR 4.09 µM | SK-OV-3 17.9 µM | NCI-H23 18.2 µM | HCT-116 3.73 µM | T47D 2.39 µM | OVCAR-8 3.08 µM | TK-10 16.9 µM | SF-539 19.9 µM | EKVX 15.1 µM | MOLT-4 2.55 µM | UACC-257 13.8 µM

CC1N=C(c2ccccc2)OC1=O (stereo not drawn)
inactive: UO-31 > 100 µM | M14 > 100 µM | SW-620 > 100 µM | Hs-578T > 100 µM | HOP-92 > 100 µM | SK-OV-3 > 100 µM | NCI-H23 > 100 µM | HCT-116 > 100 µM | T47D > 100 µM | OVCAR-8 > 100 µM | TK-10 > 100 µM | SF-539 > 100 µM | EKVX > 100 µM | MOLT-4 > 100 µM | UACC-257 > 100 µM

CCOC(CI)O[C@@H]1C=C[C@H](OC(C)=O)C1 (stereo partly drawn)
inactive: UO-31 > 100 µM | M14 > 100 µM | RXF 393 > 100 µM | SW-620 > 100 µM | SK-OV-3 > 100 µM | NCI-H23 > 100 µM | HCT-116 > 100 µM | T47D > 100 µM | OVCAR-8 > 100 µM | SF-539 > 100 µM | EKVX > 100 µM | MOLT-4 > 100 µM | UACC-257 > 100 µM

CCOC(=O)Cn1c(C)nc2nn(Cc3ccccc3)cc2c1=O
inactive: UO-31 > 100 µM | M14 > 100 µM | RXF 393 > 100 µM | SW-620 > 100 µM | Hs-578T > 100 µM | HOP-92 > 100 µM | SK-OV-3 > 100 µM | NCI-H23 > 100 µM | HCT-116 > 100 µM | T47D > 100 µM | OVCAR-8 > 100 µM | TK-10 > 100 µM | SF-539 > 100 µM | EKVX > 100 µM | MOLT-4 > 100 µM

O=C(Nc1ccc2[nH]c(C(=O)N3CC(CCl)c4c3cc([N+](=O)[O-])c3ccccc43)cc2c1)Nc1ccc2[nH]c(C(=O)N3CC(CCl)c4c3cc([N+](=O)[O-])c3ccccc43)cc2c1 (stereo not drawn)
inactive: UO-31 17.9 µM | M14 31.3 µM | HOP-92 > 100 µM | SK-OV-3 > 100 µM | NCI-H23 > 100 µM | HCT-116 > 100 µM | T47D > 100 µM | TK-10 > 100 µM | SF-539 > 100 µM | EKVX > 100 µM | UACC-257 > 100 µM

NC(=O)NC(=O)c1cnccn1
inactive: UO-31 > 100 µM | M14 > 100 µM | RXF 393 > 100 µM | SW-620 > 100 µM | HOP-92 > 100 µM | SK-OV-3 > 100 µM | NCI-H23 > 100 µM | HCT-116 > 100 µM | TK-10 12.1 µM | SF-539 > 100 µM | EKVX > 100 µM | MOLT-4 > 100 µM | UACC-257 > 100 µM

O=S(=O)(O)c1cc(O)c(/N=N\C2S(=O)(=O)OCCOS2(=O)=O)c2ccccc12
inactive: UO-31 > 100 µM | M14 > 100 µM | RXF 393 > 100 µM | SW-620 > 100 µM | Hs-578T > 100 µM | HOP-92 > 100 µM | SK-OV-3 > 100 µM | NCI-H23 > 100 µM | HCT-116 > 100 µM | T47D > 100 µM | OVCAR-8 > 100 µM | TK-10 > 100 µM | SF-539 54.3 µM | EKVX > 100 µM | MOLT-4 30.6 µM | UACC-257 > 100 µM

COc1ccc(/C=C2\S/C(=N/Nc3nc(-c4ccccc4)cs3)NC2=O)cc1OC
inactive: UO-31 15.6 µM | M14 32.4 µM | RXF 393 4.5 µM | SW-620 30.3 µM | Hs-578T 24.6 µM | HOP-92 12.6 µM | SK-OV-3 21.5 µM | NCI-H23 19.1 µM | HCT-116 17.1 µM | OVCAR-8 21 µM | TK-10 20.5 µM | SF-539 24.3 µM | EKVX 22.6 µM | MOLT-4 3.07 µM | UACC-257 33.3 µM

Cc1n[nH]c(=O)n1-n1cccc1
inactive: UO-31 > 100 µM | M14 > 100 µM | RXF 393 > 100 µM | SW-620 > 100 µM | Hs-578T > 100 µM | HOP-92 > 100 µM | SK-OV-3 > 100 µM | NCI-H23 > 100 µM | HCT-116 > 100 µM | T47D > 100 µM | OVCAR-8 > 100 µM | TK-10 > 100 µM | SF-539 > 100 µM | EKVX > 100 µM | MOLT-4 > 100 µM | UACC-257 > 100 µM

CC1=NC(=Cc2ccc(Cl)cc2)C(=O)N1n1c(-c2ccccc2)nc2ccccc2c1=O
inactive: UO-31 37.2 µM | M14 39.4 µM | SW-620 57.1 µM | Hs-578T 18.1 µM | SR 33.5 µM | SK-OV-3 38.5 µM | NCI-H23 26.3 µM | HCT-116 34.8 µM | T47D 25.4 µM | OVCAR-8 39.4 µM | TK-10 51.6 µM | SF-539 35.1 µM | EKVX 27.2 µM | MOLT-4 34.5 µM | UACC-257 25 µM

CC(=O)OCC1OC(c2nnc(C)o2)=CC(OC(C)=O)C1OC(C)=O (stereo not drawn)
inactive: UO-31 > 100 µM | RXF 393 > 100 µM | SW-620 > 100 µM | Hs-578T > 100 µM | SR > 100 µM | NCI-H23 > 100 µM | HCT-116 > 100 µM | OVCAR-8 > 100 µM | TK-10 > 100 µM | SF-539 > 100 µM | EKVX > 100 µM | MOLT-4 > 100 µM | UACC-257 > 100 µM

c1ccc(-c2cc(-c3cc(-c4ccccc4)n(-c4ccccc4)n3)nn2-c2ccccc2)cc1
inactive: UO-31 > 100 µM | M14 > 100 µM | RXF 393 > 100 µM | Hs-578T 52 µM | SK-OV-3 > 100 µM | NCI-H23 > 100 µM | HCT-116 > 100 µM | T47D > 100 µM | OVCAR-8 > 100 µM | TK-10 > 100 µM | SF-539 > 100 µM | EKVX > 100 µM | MOLT-4 > 100 µM | UACC-257 > 100 µM

COc1cccc2c1OC(c1ccc(C#N)cc1)C([N+](=O)[O-])=C2 (stereo not drawn)
active: SR 0.778 µM
inactive: UO-31 1.64 µM | M14 1.78 µM | RXF 393 1.58 µM | SW-620 1.42 µM | Hs-578T 1.78 µM | HOP-92 1.62 µM | SK-OV-3 3.23 µM | NCI-H23 1.71 µM | HCT-116 1.48 µM | OVCAR-8 1.25 µM | TK-10 3.11 µM | SF-539 1.91 µM | EKVX 6.24 µM | UACC-257 1.38 µM

O=C(CNc1c(Cl)cccc1Cl)NC1C=Cc2ccc(S(=O)(=O)Nc3c(Cl)cccc3Cl)cc2C1=O (stereo not drawn)
inactive: UO-31 26.9 µM | M14 > 100 µM | SW-620 > 100 µM | Hs-578T 6.71 µM | HOP-92 18.5 µM | SR > 100 µM | SK-OV-3 > 100 µM | NCI-H23 > 100 µM | HCT-116 > 100 µM | OVCAR-8 > 100 µM | TK-10 > 100 µM | SF-539 > 100 µM | EKVX 17.7 µM | MOLT-4 > 100 µM | UACC-257 > 100 µM
